Key:
PDK1 kinase = target: T1, PDK1 kinase (Homo sapiens, UniProt O15530); assay: PDK1 Kinase Alpha Screen Assay; type: biochemical; conditions: PDK1 Kinase Alpha Screen Assay; read-out: PDK1 IC50
T1 sequence (O15530 1-556): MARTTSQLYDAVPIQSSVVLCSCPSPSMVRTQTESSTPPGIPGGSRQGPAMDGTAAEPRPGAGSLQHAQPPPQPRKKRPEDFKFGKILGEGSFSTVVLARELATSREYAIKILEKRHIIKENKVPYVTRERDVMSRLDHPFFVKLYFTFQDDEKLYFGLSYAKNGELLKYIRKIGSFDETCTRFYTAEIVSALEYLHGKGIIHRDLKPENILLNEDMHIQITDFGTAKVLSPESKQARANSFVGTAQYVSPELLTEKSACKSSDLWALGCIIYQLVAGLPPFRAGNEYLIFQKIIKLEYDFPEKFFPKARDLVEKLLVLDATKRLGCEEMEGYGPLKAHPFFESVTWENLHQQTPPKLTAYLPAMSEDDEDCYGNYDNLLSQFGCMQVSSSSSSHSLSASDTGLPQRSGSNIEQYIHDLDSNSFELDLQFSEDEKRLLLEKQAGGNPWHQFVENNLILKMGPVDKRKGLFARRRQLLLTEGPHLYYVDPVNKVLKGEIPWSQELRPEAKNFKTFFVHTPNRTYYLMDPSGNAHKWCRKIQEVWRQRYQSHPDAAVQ
Method: 1. PDK1 Kinase Alpha Screen Assay
Reagents/Concentrations: The PDK1-4 peptide substrate, biotin-[…]-NH2, was purchased from the Tufts University Core Facility. The final concentration of PDK1-4 peptide substrate was 50 nM The ATP substrate (Adenosine-5′-triphosphate) was purchased from Roche Diagnostics. The final concentration of ATP substrate was 10 uM. Phospho-(Ser/Thr) PKA substrate antibody was purchased from Cell Signaling Technology. The final concentration of antibody was 0.3 mg/ml. The Alpha Screen Protein A detection kit containing donor and acceptor beads was purchased from PerkinElmer Life Sciences. The final concentration of both donor and acceptor beads was 25 μg/ml. Alpha Screen was used for detection. The biotinylated-PDK1-4 peptide was phosphorylated by PDK1 kinase using the ATP substrate. The biotinylated-PDK1-4 peptide substrate was bound to the streptavidin coated donor bead. The antibody was bound to the protein A coated acceptor bead. The antibody bound to the phosphorylated form of the biotinylated PDK-1 peptide substrate, bringing the donor and acceptor beads into close proximity. Laser irradiation of the donor bead at 680 nm generated a flow of short-lived singlet oxygen molecules. When the donor and acceptor beads were in close proximity, the reactive oxygen generated by the irradiation of the donor beads initiated a luminescence/fluorescence cascade in the acceptor beads. This process led to a highly amplified signal with output in the 530-620 nm range. Assays were carried out in 50 mM Tris, pH=7.5, 10 mM MgCl2, 0.1% Bovine Serum Albumin, 0.01% Tween-20, 2 mM Dithiolthreitol, 2.5% Dimethyl Sulfoxide. Reactions were stopped by adding 50 mM Tris, pH=7.5, 90 mM EDTA, 0.1% Bovine Serum Albumin, 0.01% Tween-20.
Procedure: To 10 μl of PDK1-4 peptide, 0.5 μl of test compound in dimethyl sulfoxide is added. PDK1 kinase and ATP are mixed. 10 μl of the PDK1 kinase/ATP mix is added to start the reaction. The reaction is allowed to proceed for 3-18 hours. The reactions are stopped by adding 10 μl of the EDTA-containing stop buffer. Beads are mixed with antibody. 25 μl of the bead/antibody mix is added to the stopped reactions. Plates are incubated at room temperature overnight to allow for detection development before being read. The assay is run is a 384-well format. […]

PC-3 cells = assay: Cell Proliferation Assay (Cell Titer Glo), PC-3 cell line; type: cell-based; conditions: Homo sapiens, PC-3, Cell Proliferation Assay, PC3; read-out: CPEC50 PC3
Procedure, shortened: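 PC-3 cells, 1000 cells/well, left to adhere 3-5 h, then exposed for 3 days at 37° C to compounds as 1:3 serial dilutions from 500× DMSO stocks diluted in growth medium. Medium then replaced with fresh medium and viability read by Cell Titer Glo luminescence.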

Row | Compound | IC50 (PDK1 kinase) [µM] | EC50 (PC-3 cells) [µM]
1 | Cc1cc(Nc2ncc3ccc(OC4CCN(C(C)C)CC4)cc3n2)ccc1F [Compound 327, N-(4-fluoro-3-methylphenyl)-7-(1-isopropyl-piperidin-4-yloxy)-quinazolin-2-amine] | < 5 | 5 to 10
2 | CC(C)N1CCC(c2c(O)ccc3cnc(Nc4ccc(N5CCOCC5)cc4)nc23)CC1 [Compound 328, 8-(1-isopropylpiperidin-4-yl)-2-(4-morpholinophenylamino)quinazolin-7-ol] | < 5 | < 5
3 | CC(C)NC(=O)c1ccc(Nc2ncc3ccc(OC4CCN(C(C)C)CC4)cc3n2)cc1 [Compound 329, N-isopropyl-4-(7-(1-isopropylpiperidin-4-yloxy)quinazolin-2-ylamino)benzamide] | < 5 | < 5
4 | O=c1[nH]c2ccc(Nc3ncc4ccc(OC5CCNCC5)cc4n3)cc2[nH]1 [Compound 330, 5-(7-(piperidin-4-yloxy)-quinazolin-2-ylamino]-1H-benzo[d]imidazol-2(3H)-one] | < 5 | 5 to 10
5 | CC(C)N1CCC(Oc2ccc3cnc(Nc4ccc(S(C)(=O)=O)cc4)nc3c2)CC1 [Compound 331, 7-(1-isopropylpiperidin-4-yloxy)-N-(4-(methylsulfonyl)phenyl)quinazolin-2-amine] | < 5 | < 5
6 | O=S(=O)(c1ccc(Nc2ncc3ccc(OC4CCNCC4)cc3n2)cc1)N1CCOCC1 [Compound 332] | < 5 | < 5
7 | O=S(=O)(c1ccc(Nc2ncc3ccc(OC4CCN(CCF)CC4)cc3n2)cc1)N1CCOCC1 [Compound 333, 7-(1-(2-fluoroethyl)piperidine-4-yloxy)-N-(4-(morpholinosulfonyl)phenyl)quinazolin-2-amine] | < 5 | < 5
8 | O=S(=O)(c1ccc(Nc2ncc3ccc(OC4CCN(CC(F)F)CC4)cc3n2)cc1)N1CCOCC1 [Compound 334, 7-(1-(2,2-difluoroethyl)piperidin-4-yloxy)-N-(4-(morpholinosulfonyl)phenyl)quinazolin-2-amine] | < 5 | 5 to 10
9 | Fc1ccc(Nc2ncc3cccc(OC4CCNCC4)c3n2)cc1 [Compound 335] | < 5 | < 5
10 | Brc1ccc(OC2CCNCC2)c2nc(Nc3cccc(N4CCOCC4)c3)ncc12 [Compound 336, 5-bromo-N-(3-morpholinophenyl)-8-(piperidin-4-yloxy)quinazolin-2-amine] | < 5 | 5 to 10
11 | CC(C)NC(=O)c1ccc(Nc2ncc3c(Br)ccc(OC4CCNCC4)c3n2)cc1 [Compound 337, 4-(5-bromo-8-(piperidin-4-yloxy)quinazolin-2-ylamino)-N-isopropylbenzamide] | < 5 | < 5
12 | Clc1cc(Nc2ncc3c(Br)ccc(OC4CCNCC4)c3n2)ccc1N1CCOCC1 [Compound 338, 5-bromo-N-(3-chloro-4-morpholinophenyl)-8-(piperidine-4-yloxy) quinazolin-2-amine] | < 5 | < 5
13 | Fc1cc(Nc2ncc3c(Br)ccc(OC4CCNCC4)c3n2)ccc1N1CCOCC1 [Compound 339, 5-bromo-N-(3-fluoro-4-morpholinophenyl)-8-(piperidin-4-yloxy)quinazolin-2-amine] | < 5 | < 5
14 | Cc1ccc(OC2CCNCC2)c2nc(Nc3ccc(C(=O)NC(C)C)cc3)ncc12 [Compound 340, N-isopropyl-4-(5-methyl-8-(piperidin-4-yloxy)quinazolin-2-ylamino)benzamide] | < 5 | 5 to 10
15 | O=C(NC1CC1)c1ccc(Nc2ncc3c(Br)ccc(OC4CCNCC4)c3n2)cc1 [Compound 341, 4-(5-bromo-8-(piperidin-4-yloxy)quinazolin-2-ylamino)-N-cyclopropylbenzamide] | < 5 | 5 to 10
16 | CC(C)NS(=O)(=O)c1ccc(Nc2ncc3c(Br)ccc(OC4CCNCC4)c3n2)cc1 [Compound 342, 4-(5-bromo-8-(piperidin-4-yloxy)quinazolin-2-ylamino)-N-isopropylbenzenesulfonamide] | < 5 | < 5
17 | O=C(c1ccc(Nc2ncc3ccc(-c4cnn(CCF)c4)cc3n2)cc1)N1CCOCC1 [Compound 343, (4-(7-(1-(2-fluoroethyl)-1H-pyrazol-4-yl)quinazolin-2-ylamino)phenyl)(morpholino)methanone] | < 5 | < 5
18 | O=C(c1ccc(Nc2ncc3ccc(-c4cn[nH]c4)cc3n2)cc1)N1CCOCC1 [Compound 344, (4-(7-(1H-pyrazol-4-yl)quinazolin-2-ylamino)phenyl)(morpholino)methanone] | < 5 | < 5
19 | CN1CCC(Nc2ccc3cnc(Nc4ccc(C(=O)N5CCOCC5)cc4)nc3c2)CC1 [Compound 345, (4-(7-(1-methylpiperidin-4-ylamino)quinazolin-2-ylamino)phenyl)(morpholino)methanone] | < 5 | < 5
20 | CN1CCC(Nc2ccc3cnc(Nc4ccc(S(=O)(=O)N5CCOCC5)cc4)nc3c2)CC1 [Compound 346, N7-(1-methylpiperidin-4-yl)-N2-(4-(morpholinosulfonyl)phenyl)quinazoline-2,7-diamine] | < 5 | < 5
21 | O=C(c1ccc(Nc2ncc3ccc(NC4CCNCC4)cc3n2)cc1)N1CCOCC1 [Compound 347, morpholino(4-(7-(piperidin-4-ylamino)quinazolin-2-ylamino)phenyl)methanone] | < 5 | < 5
22 | CN1CCC(CNc2ccc3cnc(Nc4ccc(C(=O)N5CCOCC5)cc4)nc3c2)CC1 [Compound 348] | < 5 | 5 to 10
23 | COCCn1cc(-c2ccc3cnc(Nc4ccc(C(=O)N5CCOCC5)cc4)nc3c2)cn1 [Compound 349, (4-(7-(1-(2-methoxyethyl)-1H-pyrazol-4-yl)quinazolin-2-ylamino)phenyl)(morpholino)methanone] | < 5 | < 5
24 | CC(C)NS(=O)(=O)c1ccc(Nc2ncc3ccc(NC4CCN(C)CC4)cc3n2)cc1 [Compound 350, N-isopropyl-4-(7-(1-methylpiperidin-4-ylamino)quinazolin-2-ylamino)benzenesulfonamide] | < 5 | < 5
25 | O=C(c1ccc(Nc2ncc3ccc(NCC4CCNCC4)cc3n2)cc1)N1CCOCC1 [Compound 351, morpholino(4-(7-(piperidin-4-ylmethylamino)quinazolin-2-ylamino)phenyl)methanone] | < 5 | 5 to 10
26 | O=C(c1ccc(Nc2ncc3ccc(N(CCO)CCO)cc3n2)cc1)N1CCOCC1 [Compound 352, (4-(7-(bis(2-hydroxyethyl)amino)quinazolin-2-ylamino)phenyl)(morpholino)methanone] | < 5 | 5 to 10
27 | O=C(c1ccc(Nc2ncc3ccc(-c4cnn(CCO)c4)cc3n2)cc1)N1CCOCC1 [Compound 353, (4-(7-(1-(2-hydroxyethyl)-1H-pyrazol-4-yl)quinazolin-2-ylamino)phenyl)(morpholino)methanone] | < 5 | 5 to 10
28 | CC(C)NC(=O)c1ccc(Nc2ncc3ccc(NC4CCN(C)CC4)cc3n2)cc1 [Compound 354, N-isopropyl-4-(7-(1-methylpiperidin-4-ylamino)quinazolin-2-ylamino)benzamide] | < 5 | < 5

— patent publication US7932262B2 (Novartis AG, priority 2006, dated 2011)
